How the values were obtained:
Assay in all cases: Field test, activity against bugs on treated host plants
Type in all cases: in vivo
[1] = system: Trigonotylus coelestialum (Rice leaf bug); details: crop Rice; rate 50 ppm (the 1st table r3); field plots, spray
Procedure: (§1) Host plants (such as rice, wheat, and cabbage) were treated with 50, 150 or 300 ppm of a compound of formula I. Treatments were diluted in water and applied at 400 to 600 liters/hectare to experimental plots using standard application equipment (such as a backpack sprayer). Each treatment was replicated 3 times and comprised an area of approximately 30 square meters. Pre-treatment evaluations of the number of live insects per plant were made one day prior to first treatment. Post-treatment evaluations were made at 5 to 7 day intervals. Field studies were conducted under ambient conditions during normal growing season.

[2] = system: Nezara antennata (Common green stink bug); details: crop Rice; rate 300 ppm (the 1st table r6); field plots, spray
Procedure: as §1

[3] = system: Lagynotomus elongatus (Brown rice stink bug); details: crop Rice; rate 150 ppm (the 1st table r10); field plots, spray
Procedure: as §1

[4] = system: Paromius exiguus; details: crop Rice; rate 300 ppm (the 1st table r5); field plots, spray
Procedure: as §1

[5] = system: Cletus trigonus (Slender rice bug); details: crop Rice; rate 50 ppm (the 1st table r14); field plots, spray
Procedure: as §1

[6] = system: Eurydema ornatum (Cabbage bug); details: crop Cabbage; rate 50 ppm (the 1st table r13); field plots, spray
Procedure: as §1

[7] = system: Leptocorisa corbetti (Leaf-footed bug); details: crop Rice; rate 50 ppm (the 1st table r9); field plots, spray
Procedure: as §1

[8] = system: Euschistus spp (Stink bug spp.); details: crop Rice; rate 300 ppm (the 1st table r12); field plots, spray
Procedure: as §1

[9] = system: Halticus bracteatus (Garden fleahopper); details: crop Alfalfa; rate 300 ppm (the 1st table r11); field plots, spray
Procedure: as §1

[10] = system: Stenotus rubrovittatus (Sorghum plant bug); details: crop Rice; rate 50 ppm (the 1st table r4); field plots, spray
Procedure: as §1

[11] = system: Lygus hesperus (Western plant bug); details: crop Alfalfa; rate 100 ppm (the 1st table r8); field plots, spray
Procedure: as §1, with “Host plants (such as rice, wheat, and cabbage) were treated with 50, 150 or 300 ppm of a compound of formula I.” left out

Measured: control

CCNC(=NNc1c(Cl)cc(C(F)(F)F)cc1Cl)C1(C)CC1(Cl)Cl (stereo not drawn) [N-ethyl-2,2-dichloro-1-methylcyclopropane-carboxamide, 2-(2,6-dichloro-α,α,α-trifluoro-p-tolyl)hydrazone]
over 75%: all assays above
